Measurements from patent US12539292B2, “BRM targeting compounds and associated methods of use” (Arvinas Operations, Inc., priority 2018, dated 2026).
Like-named read-outs stand apart in the source and are kept apart here.

Molecular target: T1, BRM (Homo sapiens, UniProt P51531)
T1 construct: In-Cell Western Screen of BRM Degradation in SW1573 Cells; endogenous in cells; host or cells: SW1573
Test: In-cell Western screen of BRM degradation in SW1573 cells (Dmax and DC50)
Type: cell-based
How it was run: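 BRM levels were read by LI-COR in-cell Western after two-channel (800/680 nm) immunostaining of fixed, Triton-permeabilised SW1573 cells.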

[1] = BRM degradation, SW1573 cells, read-out: DC50
[2] = BRM degradation, SW1573 cells, when tested at the top concentration of between 0.3 and 10 μM, read-out: Dmax (%) (% degraded)
[3] = BRM degradation, SW1573 cells, tested at the top concentration of between 0.3 and 10 μM, read-out: Dmax (%) (% degraded)
[4] = SW1573, % degraded, when tested at the top concentration of between 0.3 and 10 μM, read-out: BRM Dmax (%)
[5] = target protein degradation, read-out: BRM DC50

T1 sequence (P51531 whole entry): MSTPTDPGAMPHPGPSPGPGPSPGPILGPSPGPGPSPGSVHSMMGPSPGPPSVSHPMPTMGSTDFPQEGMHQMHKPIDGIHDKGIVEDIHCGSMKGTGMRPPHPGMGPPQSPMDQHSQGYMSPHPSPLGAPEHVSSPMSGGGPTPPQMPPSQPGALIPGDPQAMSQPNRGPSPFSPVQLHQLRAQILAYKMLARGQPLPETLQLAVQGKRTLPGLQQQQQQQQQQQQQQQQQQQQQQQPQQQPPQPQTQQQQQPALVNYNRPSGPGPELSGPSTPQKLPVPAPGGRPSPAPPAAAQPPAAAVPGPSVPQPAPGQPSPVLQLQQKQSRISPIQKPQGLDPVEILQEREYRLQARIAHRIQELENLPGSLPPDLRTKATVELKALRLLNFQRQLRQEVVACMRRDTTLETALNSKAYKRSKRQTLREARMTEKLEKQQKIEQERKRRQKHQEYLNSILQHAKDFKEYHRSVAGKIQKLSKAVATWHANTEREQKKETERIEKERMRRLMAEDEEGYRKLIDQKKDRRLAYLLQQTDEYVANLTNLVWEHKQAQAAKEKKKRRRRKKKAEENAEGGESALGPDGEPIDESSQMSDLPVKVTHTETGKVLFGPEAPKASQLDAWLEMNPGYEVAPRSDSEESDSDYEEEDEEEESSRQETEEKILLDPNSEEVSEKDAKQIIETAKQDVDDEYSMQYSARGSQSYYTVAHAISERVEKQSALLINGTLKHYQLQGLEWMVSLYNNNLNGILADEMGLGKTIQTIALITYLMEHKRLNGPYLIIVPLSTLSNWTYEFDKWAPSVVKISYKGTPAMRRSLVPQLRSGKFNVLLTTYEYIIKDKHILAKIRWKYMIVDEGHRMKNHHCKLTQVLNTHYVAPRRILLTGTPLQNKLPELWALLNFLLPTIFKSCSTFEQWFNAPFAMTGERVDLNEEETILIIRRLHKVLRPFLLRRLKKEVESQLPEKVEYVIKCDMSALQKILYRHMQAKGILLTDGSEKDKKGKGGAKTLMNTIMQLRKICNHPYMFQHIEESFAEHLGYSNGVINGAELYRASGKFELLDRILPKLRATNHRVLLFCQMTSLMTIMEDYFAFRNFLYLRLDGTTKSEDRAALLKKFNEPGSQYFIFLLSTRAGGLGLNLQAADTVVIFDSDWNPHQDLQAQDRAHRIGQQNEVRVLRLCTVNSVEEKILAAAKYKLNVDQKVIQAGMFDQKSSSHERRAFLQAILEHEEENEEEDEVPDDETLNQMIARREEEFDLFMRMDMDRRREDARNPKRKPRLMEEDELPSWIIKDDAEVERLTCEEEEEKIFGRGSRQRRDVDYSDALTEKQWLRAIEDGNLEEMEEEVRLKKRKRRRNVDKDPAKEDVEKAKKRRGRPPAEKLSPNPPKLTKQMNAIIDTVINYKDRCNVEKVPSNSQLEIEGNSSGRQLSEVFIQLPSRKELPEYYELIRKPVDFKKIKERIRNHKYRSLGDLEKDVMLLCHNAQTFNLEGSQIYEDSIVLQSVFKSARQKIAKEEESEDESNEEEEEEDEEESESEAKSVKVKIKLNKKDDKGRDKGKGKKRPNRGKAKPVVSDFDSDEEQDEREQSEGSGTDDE

## Cc1ncsc1-c1ccc([C@H](C)NC(=O)[C@@H]2C[C@@H](O)CN2C(=O)[C@@H](c2cc(OCCN3CCN(CCOc4cc(N5C6CCC5CN(c5cc(-c7ccccc7O)nnc5N)C6)ccn4)C[C@@H]3C)no2)C(C)C)cc1 [compound 141, (2S,4R)-1-((2R)-2-(3-(2-((2S)-4-(2-((4-(3-(3-amino-6-(2-hydroxyphenyl)pyridazin-4-yl)-3,8-diazabicyclo[3.2.1]octan-8-yl)pyridin-2-yl)oxy)ethyl)-2-methylpiperazin-1-yl)ethoxy)isoxazol-5-yl)-3-methylbutanoyl)-4-hydroxy-N-((S)-1-(4-(4-methylthiazol-5-yl)phenyl)ethyl)pyrrolidine-2-carboxamide]
[1]
  DC50: < 2.5 nM
[2]
  Dmax: > 75%

## COCc1ncsc1-c1ccc([C@H](C)NC(=O)[C@@H]2C[C@@H](O)CN2C(=O)[C@@H](c2cc(OCCN3CCC(O[C@H]4C[C@H](Oc5cc(N6C7CCC6CN(c6cc(-c8ccccc8O)nnc6N)C7)ccn5)C4)CC3)no2)C(C)C)cc1 [compound 185, (2S,4R)-1-((2R)-2-(3-(2-(4-((1r,3R)-3-((4-(3-(3-amino-6-(2-hydroxyphenyl)pyridazin-4-yl)-3,8-diazabicyclo[3.2.1]octan-8-yl)pyridin-2-yl)oxy)cyclobutoxy)piperidin-1-yl)ethoxy)isoxazol-5-yl)-3-methylbutanoyl)-4-hydroxy-N-((S)-1-(4-(4-(methoxymethyl)thiazol-5-yl)phenyl)ethyl)pyrrolidine-2-carboxamide]
[1]
  DC50: < 2.5 nM
[3]
  Dmax: > 75%

## Cc1ncsc1-c1ccc([C@H](C)NC(=O)[C@@H]2C[C@@H](O)CN2C(=O)[C@H](c2cc(OCCC3CCN(C(=O)[C@H]4C[C@H](CN5CCC(n6cc(-c7cc(-c8ccccc8O)nnc7N)cn6)CC5)C4)CC3)no2)C(C)C)cc1 [compound 467, (2S,4R)-1-((S)-2-(3-(2-(1-((1r,3S)-3-((4-(4-(3-amino-6-(2-hydroxyphenyl)pyridazin-4-yl)-1H-pyrazol-1-yl)piperidin-1-yl)methyl)cyclobutane-1-carbonyl)piperidin-4-yl)ethoxy)isoxazol-5-yl)-3-methylbutanoyl)-4-hydroxy-N-((S)-1-(4-(4-methylthiazol-5-yl)phenyl)ethyl)pyrrolidine-2-carboxamide]
[4]
  Dmax: > 75%
[5]
  DC50: < 2.5 nM

## Cc1cnn(C)c1-c1ccc([C@H](C)NC(=O)[C@@H]2C[C@@H](O)CN2C(=O)[C@H](c2cc(OCCN3CCN(CCOc4cc(N5C6CCC5CN(c5cc(-c7ccccc7O)nnc5N)C6)ccn4)CC3)no2)C(C)C)cc1 [compound 193, (2S,4R)-1-((2S)-2-(3-(2-(4-(2-((4-(3-(3-amino-6-(2-hydroxyphenyl)pyridazin-4-yl)-3,8-diazabicyclo[3.2.1]octan-8-yl)pyridin-2-yl)oxy)ethyl)piperazin-1-yl)ethoxy)isoxazol-5-yl)-3-methylbutanoyl)-N-((S)-1-(4-(1,4-dimethyl-1H-pyrazol-5-yl)phenyl)ethyl)-4-hydroxypyrrolidine-2-carboxamide]
[1]
  DC50: > 30 nM
[3]
  Dmax: > 75%

## Cc1ncsc1-c1ccc([C@H](C)NC(=O)[C@@H]2C[C@@H](O)CN2C(=O)[C@H](c2cc(OCCN3CCC(O[C@H]4C[C@H](Oc5cc(N6C7CCC6CN(c6cc(-c8ccccc8O)nnc6N)C7)ccn5)C4)CC3)no2)C(C)C)cn1 [compound 179, (2S,4R)-1-((2S)-2-(3-(2-(4-((1r,3S)-3-((4-(3-(3-amino-6-(2-hydroxyphenyl)pyridazin-4-yl)-3,8-diazabicyclo[3.2.1]octan-8-yl)pyridin-2-yl)oxy)cyclobutoxy)piperidin-1-yl)ethoxy)isoxazol-5-yl)-3-methylbutanoyl)-4-hydroxy-N-((S)-1-(6-(4-methylthiazol-5-yl)pyridin-3-yl)ethyl)pyrrolidine-2-carboxamide]
[1]
  DC50: > 30 nM

## Cc1ncsc1-c1ccc([C@H](CCCC(=O)O)NC(=O)[C@@H]2C[C@@H](O)CN2C(=O)C(c2cc(OCCN3CCC(O[C@H]4C[C@H](Oc5cc(N6C7CCC6CN(c6cc(-c8ccccc8O)nnc6N)C7)ccn5)C4)CC3)no2)C(C)C)cc1 (stereo partly drawn) [compound 687, (5S)-5-((2S,4R)-1-(2-(3-(2-(4-((1r,3r)-3-((4-(3-(3-amino-6-(2-hydroxyphenyl)pyridazin-4-yl)-3,8-diazabicyclo[3.2.1]octan-8-yl)pyridin-2-yl)oxy)cyclobutoxy)piperidin-1-yl)ethoxy)isoxazol-5-yl)-3-methylbutanoyl)-4-hydroxypyrrolidine-2-carboxamido)-5-(4-(4-methylthiazol-5-yl)phenyl)pentanoic acid]
[1]
  DC50: > 30 nM

## CC(C)[C@@H](C(=O)N1C[C@H](O)C[C@H]1C(=O)N[C@@H](C)c1ccc(C(F)(F)F)cc1)c1cc(OCCN2CCC(O[C@H]3C[C@H](Oc4cc(N5C6CCC5CN(c5cc(-c7ccccc7O)nnc5N)C6)ccn4)C3)CC2)no1 [compound 248, (2S,4R)-1-((2R)-2-(3-(2-(4-((1r,3R)-3-((4-(3-(3-amino-6-(2-hydroxyphenyl)pyridazin-4-yl)-3,8-diazabicyclo[3.2.1]octan-8-yl)pyridin-2-yl)oxy)cyclobutoxy)piperidin-1-yl)ethoxy)isoxazol-5-yl)-3-methylbutanoyl)-4-hydroxy-N-((S)-1-(4-(trifluoromethyl)phenyl)ethyl) pyrrolidine-2-carboxamide]
[1]
  DC50: > 30 nM

## Cc1ncsc1-c1ccc([C@H](C)NC(=O)[C@@H]2C[C@@H](O)CN2C(=O)[C@@H](c2cc(N3CCC4(CCN(CC5CCN(C[C@H]6C[C@H](Oc7cc(N8C9CCC8CN(c8cc(-c%10ccccc%10O)nnc8N)C9)ccn7)C6)CC5)CC4)CC3)no2)C(C)C)cc1 [compound 689, (2S,4R)-1-((2R)-2-(3-(9-((1-(((1r,3r)-3-((4-(3-(3-amino-6-(2-hydroxyphenyl)pyridazin-4-yl)-3,8-diazabicyclo[3.2.1]octan-8-yl)pyridin-2-yl)oxy)cyclobutyl)methyl)piperidin-4-yl)methyl)-3,9-diazaspiro[5.5]undecan-3-yl)isoxazol-5-yl)-3-methylbutanoyl)-4-hydroxy-N-((S)-1-(4-(4-methylthiazol-5-yl)phenyl)ethyl)pyrrolidine-2-carboxamide]
[1]
  DC50: < 2.5 nM
BRM degradation, SW1573 cells, read-out: Dmax (% degraded)
  Dmax: > 75%

## Cc1ncsc1-c1ccc([C@H](C)NC(=O)[C@@H]2C[C@@H](O)CN2C(=O)[C@H](c2cc(N3CCN(CCN4CCC(O[C@H]5C[C@H](Oc6cc(N7C8CCC7CN(c7cc(-c9ccccc9O)nnc7N)C8)ccn6)C5)CC4)CC3)no2)C(C)C)cn1 [compound 401, (2S,4R)-1-((2S)-2-(3-(4-(2-(4-((1r,3r)-3-((4-(3-(3-amino-6-(2-hydroxyphenyl)pyridazin-4-yl)-3,8-diazabicyclo[3.2.1]octan-8-yl)pyridin-2-yl)oxy)cyclobutoxy)piperidin-1-yl)ethyl)piperazin-1-yl)isoxazol-5-yl)-3-methylbutanoyl)-4-hydroxy-N-((S)-1-(6-(4-methylthiazol-5-yl)pyridin-3-yl)ethyl)pyrrolidine-2-carboxamide]
Degradation of BRM, read-out: BRM DC50
  DC50: > 30 nM

## Cc1ncsc1-c1ccc([C@H](C)NC(=O)[C@@H]2C[C@@H](O)CN2C(=O)[C@H](c2cc(CCCOCCOCCOCCn3cc(-c4cc(-c5ccccc5O)nnc4N)cn3)no2)C(C)C)cc1 [compound 196, (2S,4R)-1-((S)-2-(3-(3-(2-(2-(2-(4-(3-amino-6-(2-hydroxyphenyl)pyridazin-4-yl)-1H-pyrazol-1-yl)ethoxy)ethoxy)ethoxy)propyl)isoxazol-5-yl)-3-methylbutanoyl)-4-hydroxy-N-((S)-1-(4-(4-methylthiazol-5-yl)phenyl)ethyl)pyrrolidine-2-carboxamide]
[1]
  DC50: > 30 nM
[3]
  Dmax: > 75%

## Cc1nccn1-c1ccc([C@H](C)NC(=O)[C@@H]2C[C@@H](O)CN2C(=O)[C@@H](c2cc(OCCN3CCC(O[C@H]4C[C@H](Oc5cc(N6C7CCC6CN(c6cc(-c8ccccc8O)nnc6N)C7)ccn5)C4)CC3)no2)C(C)C)cn1 [compound 398, (2S,4R)-1-((2R)-2-(3-(2-(4-((1r,3R)-3-((4-(3-(3-amino-6-(2-hydroxyphenyl)pyridazin-4-yl)-3,8-diazabicyclo[3.2.1]octan-8-yl)pyridin-2-yl)oxy)cyclobutoxy)piperidin-1-yl)ethoxy)isoxazol-5-yl)-3-methylbutanoyl)-4-hydroxy-N-((S)-1-(6-(2-methyl-1H-imidazol-1-yl)pyridin-3-yl)ethyl)pyrrolidine-2-carboxamide]
[4]
  Dmax: > 75%
[5]
  DC50: < 2.5 nM

## Cc1ncsc1-c1ccc([C@H](C)NC(=O)[C@@H]2C[C@@H](O)CN2C(=O)[C@H](c2cc(OCC#CC34CC(CNC5CC(Oc6cc(N7C8CC[C@@H]7CN(c7cc(-c9ccccc9O)nnc7N)C8)ccn6)C5)(C3)C4)no2)C(C)C)cc1 (stereo partly drawn) [compound 381, (2S,4R)-1-((2S)-2-(3-((3-(3-((((1r,3S)-3-((4-(3-(3-amino-6-(2-hydroxyphenyl)pyridazin-4-yl)-3,8-diazabicyclo[3.2.1]octan-8-yl)pyridin-2-yl)oxy)cyclobutyl)amino)methyl)bicyclo[1.1.1]pentan-1-yl)prop-2-yn-1-yl)oxy)isoxazol-5-yl)-3-methylbutanoyl)-4-hydroxy-N-((S)-1-(4-(4-methylthiazol-5-yl)phenyl)ethyl)pyrrolidine-2-carboxamide]
% degraded, when tested at the top concentration of between 0.3 and 10 μM
  BRM Dmax (%): A (A > 75)
[5]
  DC50: 10 to 30 nM

## Cc1ncsc1-c1ccc(CNC(=O)[C@@H]2C[C@@H](O)CN2C(=O)[C@@H](c2cc(OCCOCCOCCCCN3CCOC4(CCN(c5cc(-c6ccccc6O)nnc5N)CC4)C3)no2)C(C)C)cc1 [compound 37, (2S,4R)-1-((R)-2-(3-(2-(2-(4-(9-(3-amino-6-(2-hydroxyphenyl)pyridazin-4-yl)-1-oxa-4,9-diazaspiro[5.5]undecan-4-yl)butoxy)ethoxy)ethoxy)isoxazol-5-yl)-3-methylbutanoyl)-4-hydroxy-N-(4-(4-methylthiazol-5-yl)benzyl)pyrrolidine-2-carboxamide]
[1]
  DC50: 2.5 to 10 nM
[2]
  Dmax: > 75%
